From patent US20220370440A1 (Lead Discovery Center GmbH, priority 2018, published 2022)

What was measured:
[1] = biological target: T1, HER2 INS YVMA (Homo sapiens, UniProt P04626, INS775YVMA); test: Lance Kinase Activity Assay, HER2 INS YVMA (Her2 Exon 20 INSYVMA Lance); assay type: biochemical; settings: biochemical Lance assay
T1 construct: purchased DPF
Method in brief: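 Kinase phosphorylates a ULight-labelled peptide substrate; Eu anti-phospho antibody gives TR-FRET (ex 340 nm, em 665/615 nm). Compounds in 1:3 serial dilution over 8 steps, reaction started with ATP, 1 h at room temperature, stopped with EDTA-containing detection mix for 1 h. IC50 from sigmoidal dose-response curves.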

[2] = biological target: Her2 Exon 20 INSYVMA Ba/F3 (Homo sapiens, UniProt P04626, DUP772-775, cells depend on it); test: Her2 Exon 20 INSYVMA Ba/F3 CellTiter-Glo; assay type: cell-based; settings: CellTiter-Glo, 72 h, read-out: Her2 Exon 20 INSYVMA Ba/F3 CTG IC50
Sequence of Her2 Exon 20 INSYVMA Ba/F3 (P04626 with tags, fused parts or gaps DUP772-775): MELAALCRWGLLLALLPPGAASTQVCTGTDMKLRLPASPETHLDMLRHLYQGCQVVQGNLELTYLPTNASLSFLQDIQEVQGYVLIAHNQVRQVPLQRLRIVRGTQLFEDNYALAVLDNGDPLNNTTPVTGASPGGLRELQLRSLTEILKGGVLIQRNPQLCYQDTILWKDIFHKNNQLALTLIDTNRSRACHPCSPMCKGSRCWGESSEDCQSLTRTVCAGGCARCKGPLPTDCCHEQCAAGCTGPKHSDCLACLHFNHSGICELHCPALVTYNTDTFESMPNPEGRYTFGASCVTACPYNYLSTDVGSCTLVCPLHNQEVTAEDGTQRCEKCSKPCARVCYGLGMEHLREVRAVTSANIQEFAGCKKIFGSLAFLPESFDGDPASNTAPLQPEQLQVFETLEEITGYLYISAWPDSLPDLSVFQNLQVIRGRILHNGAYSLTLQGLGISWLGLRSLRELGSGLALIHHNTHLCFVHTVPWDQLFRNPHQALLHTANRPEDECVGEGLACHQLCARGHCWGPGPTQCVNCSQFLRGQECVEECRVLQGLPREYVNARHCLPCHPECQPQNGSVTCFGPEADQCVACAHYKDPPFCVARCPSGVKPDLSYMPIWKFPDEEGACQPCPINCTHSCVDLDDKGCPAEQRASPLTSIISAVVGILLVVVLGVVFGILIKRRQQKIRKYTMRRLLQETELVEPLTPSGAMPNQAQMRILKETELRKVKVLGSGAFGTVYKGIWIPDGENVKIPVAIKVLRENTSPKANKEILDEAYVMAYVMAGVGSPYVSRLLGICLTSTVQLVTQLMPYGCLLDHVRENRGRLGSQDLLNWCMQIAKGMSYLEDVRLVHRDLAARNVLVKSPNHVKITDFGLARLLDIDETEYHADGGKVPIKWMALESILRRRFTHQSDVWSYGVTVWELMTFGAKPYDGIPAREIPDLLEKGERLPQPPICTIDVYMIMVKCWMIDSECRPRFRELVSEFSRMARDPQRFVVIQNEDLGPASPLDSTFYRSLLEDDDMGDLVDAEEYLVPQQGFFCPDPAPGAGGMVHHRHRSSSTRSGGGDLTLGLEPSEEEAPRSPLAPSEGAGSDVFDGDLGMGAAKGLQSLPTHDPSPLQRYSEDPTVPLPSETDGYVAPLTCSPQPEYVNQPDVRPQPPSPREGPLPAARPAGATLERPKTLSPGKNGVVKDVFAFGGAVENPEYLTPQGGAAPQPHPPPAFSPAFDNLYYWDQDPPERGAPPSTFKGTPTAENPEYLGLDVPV
Method in brief: (§1)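 IC50 values come from dose–response fits of CellTiter-Glo luminescence in Ba/F3 cells treated with compound for 72 h at 37 °C, 5% CO2. Vehicle (DMSO) and 10 μM staurosporine wells set the assay window, with Z′ ≥0.5 required.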

[3] = biological target: EGFR Exon 20 INSNPH Ba/F3 (Homo sapiens, UniProt P00533, DUP771-773, cells depend on it); test: EGFR Exon 20 INSNPH Ba/F3 CellTiter-Glo; assay type: cell-based; settings: CellTiter-Glo, 72 h, read-out: EGFR Exon 20 INSNPH Ba/F3 CTG IC50
Method in brief: as §1

[4] = biological target: EGFR T790ML858R (Homo sapiens, UniProt P00533, L858R/T790M); test: EGFR T790ML858R Lance assay; assay type: biochemical
Sequence of EGFR T790ML858R (P00533 25-1210 T790M/L858R): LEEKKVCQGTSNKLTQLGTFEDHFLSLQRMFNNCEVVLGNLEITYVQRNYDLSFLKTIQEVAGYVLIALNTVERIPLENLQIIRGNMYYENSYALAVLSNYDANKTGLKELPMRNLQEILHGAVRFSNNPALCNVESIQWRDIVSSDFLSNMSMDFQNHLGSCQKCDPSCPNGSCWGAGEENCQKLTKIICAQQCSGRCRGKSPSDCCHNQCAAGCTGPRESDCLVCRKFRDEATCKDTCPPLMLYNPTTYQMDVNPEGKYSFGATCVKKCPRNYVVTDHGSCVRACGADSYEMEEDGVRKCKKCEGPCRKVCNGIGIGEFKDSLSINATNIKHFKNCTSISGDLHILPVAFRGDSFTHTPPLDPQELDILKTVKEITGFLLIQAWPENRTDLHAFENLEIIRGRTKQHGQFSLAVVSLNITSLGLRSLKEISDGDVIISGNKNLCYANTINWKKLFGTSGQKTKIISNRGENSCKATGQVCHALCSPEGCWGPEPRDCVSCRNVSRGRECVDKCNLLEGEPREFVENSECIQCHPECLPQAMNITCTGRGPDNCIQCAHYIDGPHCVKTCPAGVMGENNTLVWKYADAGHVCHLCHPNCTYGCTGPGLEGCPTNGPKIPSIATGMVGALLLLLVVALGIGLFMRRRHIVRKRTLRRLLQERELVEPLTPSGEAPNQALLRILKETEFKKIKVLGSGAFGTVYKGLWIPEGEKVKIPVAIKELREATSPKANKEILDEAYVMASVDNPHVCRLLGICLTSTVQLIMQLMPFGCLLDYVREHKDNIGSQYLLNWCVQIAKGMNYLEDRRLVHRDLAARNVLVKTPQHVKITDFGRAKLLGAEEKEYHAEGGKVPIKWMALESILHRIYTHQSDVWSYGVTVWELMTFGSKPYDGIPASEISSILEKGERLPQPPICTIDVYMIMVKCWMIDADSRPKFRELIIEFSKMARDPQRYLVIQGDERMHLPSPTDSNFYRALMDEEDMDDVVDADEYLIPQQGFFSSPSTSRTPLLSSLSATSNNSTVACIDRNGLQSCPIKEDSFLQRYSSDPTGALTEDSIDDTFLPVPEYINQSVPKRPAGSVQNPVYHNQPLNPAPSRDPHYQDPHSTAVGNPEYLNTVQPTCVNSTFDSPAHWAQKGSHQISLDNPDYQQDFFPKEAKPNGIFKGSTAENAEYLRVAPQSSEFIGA
Method: (§2) Inhibition is indicated as […] [nM] (“−”=not measured). Compounds having an activity designated as “A” provided an IC50≤100 nM; compounds having an activity designated as “B” provided an 100 nM<IC50≤500 nM; compounds having an activity designated as “C” provided an 500 nM<IC50≤1000 nM; compounds having an activity designated as “D” provided an 1000 nM<IC50≤100000 nM; and compounds having an activity designated as “E” provided an IC50>10000 nM.

[5] = biological target: EGFR wt (Homo sapiens, UniProt P00533); test: EGFR wt Lance assay; assay type: biochemical
Sequence of EGFR wt (P00533 25-1210): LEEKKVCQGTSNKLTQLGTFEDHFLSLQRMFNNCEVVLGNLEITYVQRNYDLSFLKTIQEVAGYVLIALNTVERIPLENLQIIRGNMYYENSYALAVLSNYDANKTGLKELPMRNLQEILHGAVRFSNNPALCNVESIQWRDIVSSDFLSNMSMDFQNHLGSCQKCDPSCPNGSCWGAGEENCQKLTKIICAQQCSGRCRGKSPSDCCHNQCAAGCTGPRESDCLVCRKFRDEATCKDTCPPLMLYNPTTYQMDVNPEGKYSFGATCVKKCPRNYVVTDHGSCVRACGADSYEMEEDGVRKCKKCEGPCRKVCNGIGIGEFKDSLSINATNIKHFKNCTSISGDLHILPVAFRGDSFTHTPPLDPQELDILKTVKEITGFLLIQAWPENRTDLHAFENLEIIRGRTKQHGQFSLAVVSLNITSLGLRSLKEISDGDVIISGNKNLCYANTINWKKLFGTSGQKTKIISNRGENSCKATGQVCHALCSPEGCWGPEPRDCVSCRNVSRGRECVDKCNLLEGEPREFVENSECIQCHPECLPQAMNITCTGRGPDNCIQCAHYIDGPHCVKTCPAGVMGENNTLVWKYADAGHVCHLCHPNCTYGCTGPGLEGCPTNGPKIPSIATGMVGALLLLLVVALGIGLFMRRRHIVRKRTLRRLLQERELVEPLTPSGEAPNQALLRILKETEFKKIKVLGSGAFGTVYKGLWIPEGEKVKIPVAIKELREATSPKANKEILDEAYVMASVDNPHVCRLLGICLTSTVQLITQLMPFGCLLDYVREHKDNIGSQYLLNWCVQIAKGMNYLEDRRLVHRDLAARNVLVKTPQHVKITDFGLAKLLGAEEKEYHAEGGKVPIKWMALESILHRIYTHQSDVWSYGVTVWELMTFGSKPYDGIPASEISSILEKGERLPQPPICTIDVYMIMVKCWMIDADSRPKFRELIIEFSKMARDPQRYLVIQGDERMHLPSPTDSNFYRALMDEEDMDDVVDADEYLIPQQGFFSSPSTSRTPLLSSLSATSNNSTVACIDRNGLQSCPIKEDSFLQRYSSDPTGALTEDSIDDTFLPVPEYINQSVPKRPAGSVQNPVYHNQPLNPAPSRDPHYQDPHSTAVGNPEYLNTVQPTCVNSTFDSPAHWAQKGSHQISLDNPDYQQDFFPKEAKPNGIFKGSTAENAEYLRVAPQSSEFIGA
Method: as §2

[6] = tested on: H1975; test: H1975 CellTiter-Glo; assay type: cell-based; settings: Homo sapiens, NCI-H1975; 72 h compound incubation; read-out: H1975 CTG IC50
Method in brief: (§3)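 Antiproliferative IC50 values come from a 72 h treatment of cultured cells, measured by CellTiter-Glo ATP luminescence. Only runs with a Z′-factor of at least 0.5, calculated from 16 vehicle and 16 Staurosporine (10 μM) control wells, are reported.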

[7] = tested on: A431; test: A431 CellTiter-Glo; assay type: cell-based; settings: Homo sapiens, A-431; 72 h compound incubation; read-out: A431 CTG IC50
Method in brief: as §3

T1 sequence (P04626 with tags, fused parts or gaps INS775YVMA): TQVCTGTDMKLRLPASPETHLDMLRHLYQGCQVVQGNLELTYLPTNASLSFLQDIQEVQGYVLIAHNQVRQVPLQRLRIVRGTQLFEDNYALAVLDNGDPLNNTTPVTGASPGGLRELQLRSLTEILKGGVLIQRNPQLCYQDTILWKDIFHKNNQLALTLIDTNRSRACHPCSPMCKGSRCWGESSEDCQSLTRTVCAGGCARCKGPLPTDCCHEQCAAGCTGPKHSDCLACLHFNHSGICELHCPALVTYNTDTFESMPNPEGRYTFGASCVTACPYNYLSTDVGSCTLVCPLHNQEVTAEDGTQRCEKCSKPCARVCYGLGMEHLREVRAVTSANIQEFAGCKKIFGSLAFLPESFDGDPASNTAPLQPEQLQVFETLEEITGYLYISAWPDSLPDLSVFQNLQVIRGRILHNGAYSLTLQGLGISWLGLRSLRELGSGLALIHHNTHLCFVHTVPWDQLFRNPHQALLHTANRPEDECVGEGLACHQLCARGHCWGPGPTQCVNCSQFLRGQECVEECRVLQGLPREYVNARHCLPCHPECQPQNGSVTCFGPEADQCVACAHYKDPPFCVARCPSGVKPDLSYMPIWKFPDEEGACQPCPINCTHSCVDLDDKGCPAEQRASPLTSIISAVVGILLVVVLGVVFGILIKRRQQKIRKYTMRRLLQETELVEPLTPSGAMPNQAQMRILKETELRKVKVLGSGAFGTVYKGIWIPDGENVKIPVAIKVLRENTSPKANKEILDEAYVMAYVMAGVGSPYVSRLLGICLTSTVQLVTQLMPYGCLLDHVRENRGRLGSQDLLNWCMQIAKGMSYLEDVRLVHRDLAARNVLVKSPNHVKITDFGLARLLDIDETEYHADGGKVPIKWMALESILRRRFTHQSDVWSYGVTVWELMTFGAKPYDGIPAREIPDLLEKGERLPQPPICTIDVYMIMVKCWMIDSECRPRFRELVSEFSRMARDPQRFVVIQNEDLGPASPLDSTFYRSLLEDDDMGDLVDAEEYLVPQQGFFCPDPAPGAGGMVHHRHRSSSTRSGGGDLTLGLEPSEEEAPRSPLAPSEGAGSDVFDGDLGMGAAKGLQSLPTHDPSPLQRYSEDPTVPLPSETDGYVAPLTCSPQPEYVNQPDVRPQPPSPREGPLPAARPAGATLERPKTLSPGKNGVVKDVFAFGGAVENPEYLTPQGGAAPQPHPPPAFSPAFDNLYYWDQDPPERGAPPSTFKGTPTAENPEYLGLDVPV

Row | SMILES | IC50 [1] | GI50 [2] | GI50 [3] | IC50 [4] | IC50 [5] | IC50 [6] | IC50 [7]
1 | C=CC(=O)Nc1cc(-c2c(-c3ccc(N4CCN(C)CC4)cc3)[nH]c3ncc(NC(=O)C(C)C)cc23)ccc1C [Example 200, N-(5-(5-isobutyramido-2-(4-(4-methylpiperazin-1-yl)phenyl)-1H-pyrrolo[2,3-b]pyridin-3-yl)-2-methylphenyl)acrylamide 2,2,2-trifluoroacetate] | ≤ 100 nM | 100 to 500 nM | 100 to 500 nM | ≤ 100 nM | ≤ 100 nM | 1000 to 100000 nM | 1000 to 100000 nM
2 | C=CC(=O)Nc1cc(-c2c(-c3ccc(N4CCN(C)CC4)cc3)[nH]c3ncc(C(=O)OCCOC)cc23)ccc1C [Example 140, 2-methoxyethyl 3-(3-acrylamido-4-methylphenyl)-2-(4-(4-methylpiperazin-1-yl)phenyl)-1H-pyrrolo[2,3-b]pyridine-5-carboxylate] | ≤ 100 nM | 100 to 500 nM | 100 to 500 nM | ≤ 100 nM | ≤ 100 nM | 100 to 500 nM | 1000 to 100000 nM
3 | C=CC(=O)N1CCCc2ccc(-c3c(-c4ccc(CN5CCN(C)CC5)nc4)[nH]c4nccc(Cl)c34)cc21 [Example 89, 1-(7-(4-chloro-2-(6-((4-methylpiperazin-1-yl)methyl)pyridin-3-yl)-1H-pyrrolo[2,3-b]pyridin-3-yl)-3,4-dihydroquinolin-1(2H)-yl)prop-2-en-1-one] | ≤ 100 nM | 100 to 500 nM | 100 to 500 nM | ≤ 100 nM | ≤ 100 nM | 100 to 500 nM | 500 to 1000 nM
4 | C=CC(=O)Nc1cc(-c2c(-c3ccc(C4CCN(C)CC4)cc3)[nH]c3ncc(C(=O)OC(C)C)cc23)ccc1C [Example 149, isoproyl 3-(3-acrylamido-4-methylphenyl)-2-(4-(1-methylpiperidin-4-yl)phenyl)-1H-pyrrolo[2,3-b]pyridine-5-carboxylate 2,2,2-trifluoroacetate] | ≤ 100 nM | 100 to 500 nM | 100 to 500 nM | ≤ 100 nM | ≤ 100 nM | 100 to 500 nM | 1000 to 100000 nM
5 | C=CC(=O)Nc1cc(-c2c(-c3ccc(N4CCN(C)CC4)cc3)[nH]c3ncc(CC)cc23)ccc1C [Example 191, N-(5-(5-ethyl-2-(4-(4-methylpiperazin-1-yl)phenyl)-1H-pyrrolo[2,3-b]pyridin-3-yl)-2-methylphenyl)acrylamide 2,2,2-trifluoroacetate] | ≤ 100 nM | 100 to 500 nM | 100 to 500 nM | ≤ 100 nM | ≤ 100 nM | ≤ 100 nM | 1000 to 100000 nM
6 | C=CC(=O)Nc1cc(-c2c(-c3ccc(S(=O)(=O)N4CCN(C)CC4)cc3)[nH]c3ncc(C(=O)OC(C)C)cc23)ccc1C [Example 167, isopropyl 3-(3-acrylamido-4-methylphenyl)-2-(4-((4-methylpiperazin-1-yl)sulfonyl)phenyl)-1H-pyrrolo[2,3-b]pyridine-5-carboxylate] | 100 to 500 nM | 500 to 1000 nM | 500 to 1000 nM | ≤ 100 nM | ≤ 100 nM | 500 to 1000 nM | 1000 to 100000 nM
7 | C=CC(=O)N1CCCc2ccc(-c3c(-c4cccc(OCCN5CCCC5)c4)[nH]c4nccc(Cl)c34)cc21 [Example 94, 1-(7-(4-chloro-2-(3-(2-(pyrrolidin-1-yl)ethoxy)phenyl)-1H-pyrrolo[2,3-b]pyridin-3-yl)-3,4-dihydroquinolin-1(2H)-yl)prop-2-en-1-one] | ≤ 100 nM | 1000 to 10000 nM | 1000 to 10000 nM | ≤ 100 nM | ≤ 100 nM | 100 to 500 nM | 1000 to 100000 nM
8 | Cc1ccc(-c2c(-c3ccc(N4CCN(C)CC4)cc3)[nH]c3ncc(C(=O)OC(C)C)cc23)cc1NC(=O)/C=C/CN(C)C [Example 148, (E)-isoproyl 3-(3-(4-(dimethylamino)but-2-enamido)-4-methylphenyl)-2-(4-(4-methylpiperazin-1-yl)phenyl)-1H-pyrrolo[2,3-b]pyridine-5-carboxylate 2,2,2-trifluoroacetate] | ≤ 100 nM | 100 to 500 nM | 500 to 1000 nM | ≤ 100 nM | ≤ 100 nM | 500 to 1000 nM | 1000 to 100000 nM
9 | C=CC(=O)N1CCCc2ccc(-c3c(-c4ccc(C5CCN(C)CC5)cc4)[nH]c4nccc(Cl)c34)cc21 [Example 87, 1-(7-(4-chloro-2-(4-(1-methylpiperidin-4-yl)phenyl)-1H-pyrrolo[2,3-b]pyridin-3-yl)-3,4-dihydroquinolin-1(2H)-yl)prop-2-en-1-one] | ≤ 100 nM | 500 to 1000 nM | 500 to 1000 nM | ≤ 100 nM | ≤ 100 nM | 100 to 500 nM | 1000 to 100000 nM
10 | C=CC(=O)N1CCCc2ccc(-c3c(-c4ccc(OCCN5CCCC5)cc4)[nH]c4nccc(Cl)c34)cc21 [Example 90, 1-(7-(4-chloro-2-(4-(2-(pyrrolidin-1-yl)ethoxy)phenyl)-1H-pyrrolo[2,3-b]pyridin-3-yl)-3,4-dihydroquinolin-1(2H)-yl)prop-2-en-1-one] | ≤ 100 nM | 500 to 1000 nM | 1000 to 10000 nM | ≤ 100 nM | ≤ 100 nM | 100 to 500 nM | 1000 to 100000 nM
11 | C=CC(=O)Nc1cc(-c2c(-c3ccc(N4CCN(C)CC4)cc3)[nH]c3ncc(C(=O)NCc4ccc(CN5CCN(C)CC5)cc4)cc23)ccc1C [Example 122, 3-(3-acrylamido-4-methylphenyl)-N-(4-((4-methylpiperazin-1-yl)methyl)benzyl)-2-(4-(4-methylpiperazin-1-yl)phenyl)-1H-pyrrolo[2,3-b]pyridine-5-carboxamide] | ≤ 100 nM | 1000 to 10000 nM | 1000 to 10000 nM | ≤ 100 nM | ≤ 100 nM | 1000 to 100000 nM | 1000 to 100000 nM
12 | C=CC(=O)Nc1cc(-c2c(-c3ccc(N(C)CCN(C)C)cc3)[nH]c3ncc(C(=O)O)cc23)ccc1C [Example 153, 3-(3-acrylamido-4-methylphenyl)-2-(4-((2-(dimethylamino)ethyl)(methyl)amino)phenyl)-1H-pyrrolo[2,3-b]pyridine-5-carboxylic acid 2,2,2-trifluoroacetate] | ≤ 100 nM | > 10000 nM | > 10000 nM | ≤ 100 nM | ≤ 100 nM | > 10000 nM | > 10000 nM
13 | C=CC(=O)Nc1cc(-c2c(-c3cnc(N4CCN(C)CC4)s3)[nH]c3ncc(C(=O)OC(C)C)cc23)ccc1C [Example 169, isopropyl 3-(3-acrylamido-4-methylphenyl)-2-(2-(4-methylpiperazin-1-yl)thiazol-5-yl)-1H-pyrrolo[2,3-b]pyridine-5-carboxylate] | ≤ 100 nM | 500 to 1000 nM | 100 to 500 nM | ≤ 100 nM | ≤ 100 nM | 1000 to 100000 nM | 1000 to 100000 nM
14 | C=CC(=O)Nc1cc(-c2c(-c3ccc(N4CCN(C)CC4)cc3)[nH]c3ncc(CC(=O)OC)cc23)ccc1C [Example 195, methyl 2-(3-(3-acrylamido-4-methylphenyl)-2-(4-(4-methylpiperazin-1-yl)phenyl)-1H-pyrrolo[2,3-b]pyridin-5-yl)acetate] | ≤ 100 nM | 100 to 500 nM | 100 to 500 nM | ≤ 100 nM | ≤ 100 nM | 100 to 500 nM | 1000 to 100000 nM
15 | C=CC(=O)N1CCc2ccc(-c3c(-c4ccc(N5CCN(C)CC5)cc4)[nH]c4ncc(C(=O)OC(C)C)cc34)cc21 [Example 192, isoproyl 3-(1-acryloylindolin-6-yl)-2-(4-(4-methylpiperazin-1-yl)phenyl)-1H-pyrrolo[2,3-b]pyridine-5-carboxylate 2,2,2-trifluoroacetate] | ≤ 100 nM | 100 to 500 nM | 500 to 1000 nM | ≤ 100 nM | ≤ 100 nM | 1000 to 100000 nM | 1000 to 100000 nM
16 | C=CC(=O)Nc1cc(-c2c(-c3ccc(N4CCN(C)CC4)cc3)[nH]c3ncc(C(=O)NCc4cccc(C(N)=O)c4)cc23)ccc1C [Example 133, 3-(3-acrylamido-4-methylphenyl)-N-(3-carbamoylbenzyl)-2-(4-(4-methylpiperazin-1-yl)phenyl)-1H-pyrrolo[2,3-b]pyridine-5-carboxamide] | 100 to 500 nM | > 10000 nM | > 10000 nM | 100 to 500 nM | ≤ 100 nM | > 10000 nM | > 10000 nM
